The species entered for assay [1] is Cavia porcellus. The assay is described as follows: Antagonistic activity with Histamin as agonist in ileum tissue of guinea pig smooth muscles. The class given is functional.
Assay [2] is filed under the species Cavia porcellus. As to the kind of experiment: Antagonistic activity with LTC4 as agonist in ileum tissue of guinea pig smooth muscles. The class given is functional.
The species named for assay [3] is Cavia porcellus. The assay is described as follows: pA2 value on guinea pig trachea tissue in presence of LTD4 as agonist. Conditions: read-out: pA2 (converted). The class given is functional.
The species entered for assay [4] is Cavia porcellus. As to the kind of experiment: pA2 value on guinea pig ileum tissue in presence of LTD4 as agonist. The class given is functional. Conditions: read-out: pA2 (converted).
The species entered for assay [5] is Cavia porcellus. The assay is described as follows: Antagonistic activity with LTE4 as agonist in trachea tissue of guinea pig smooth muscles. Format: functional, Muscle tissue.
The species named for assay [6] is Cavia porcellus. As to the kind of experiment: pA2 value on guinea pig trachea tissue in presence of LTE4 as agonist. The class given is functional. To be noted: read-out: pA2 (converted).
The species entered for assay [7] is Cavia porcellus. The assay is described as follows: pA2 value on guinea pig ileum tissue in presence of LTE4 as agonist. Format: functional. Conditions: read-out: pA2 (converted).
The species named for assay [8] is Cavia porcellus. As to the kind of experiment: Antagonistic activity with LTC4 as agonist in trachea tissue of guinea pig smooth muscles. The class given is functional, Muscle tissue.
The species named for assay [9] is Cavia porcellus. The assay is described as follows: Antagonistic activity with LTE4 as agonist in ileum tissue of guinea pig smooth muscles. Format: functional.
For assay [10], the species on record is Cavia porcellus. The assay is described as follows: Antagonistic activity with LTD4 as agonist in trachea tissue of guinea pig smooth muscles. Format: functional, Muscle tissue.
The species entered for assay [11] is Cavia porcellus. As to the kind of experiment: Antagonistic activity with LTD4 as agonist in ileum tissue of guinea pig smooth muscles. The class given is functional.
The species entered for assay [12] is Cavia porcellus. The assay is described as follows: pA2 value on guinea pig parenchyma tissue in presence of LTD4 as agonist. The class given is functional. Conditions: read-out: pA2 (converted).
For assay [13], the species on record is Cavia porcellus. As to the kind of experiment: Antagonistic activity with Carbamylcholine as agonist in trachea tissue of guinea pig smooth muscles. The class given is functional, Muscle tissue.
Assay [14] is filed under the species Cavia porcellus. As to the kind of experiment: Antagonistic activity with U-46,619 as agonist in trachea tissue of guinea pig smooth muscles. The class given is functional, Muscle tissue.
The species entered for assay [15] is Cavia porcellus. The assay is described as follows: Antagonistic activity with Bradykinin as agonist in ileum tissue of guinea pig smooth muscles. Format: functional.
For assay [16], the species on record is Cavia porcellus. The assay is described as follows: Antagonistic activity with LTD4 as agonist in parenchyma tissue of guinea pig smooth muscles. The class given is functional, Muscle tissue.
Assay [17] is filed under the species Cavia porcellus. The assay is described as follows: Antagonistic activity with LTE4 as agonist in parenchyma tissue of guinea pig smooth muscles. Format: functional, Muscle tissue.
The species entered for assay [18] is Cavia porcellus. As to the kind of experiment: pA2 value on guinea pig parenchyma tissue in presence of LTE4 as agonist. Format: functional. Conditions: read-out: pA2 (converted).

In general, pKB refers to the negative decadic logarithm of the KB, by convention in mol/L.

Consider `CCCc1c(COc2ccc(Cc3nnn(CCCc4nnn[n-]4)n3)cc2)ccc(C(C)=O)c1O.[Na+]`, for which the pKB in the assay filed under Cavia porcellus [1] is recorded as below 5; in the assay filed under Cavia porcellus [2], 5.39; in the assay listed under Cavia porcellus [5], 7.57; in the assay listed under Cavia porcellus [8] it was 5.67; in the assay filed under Cavia porcellus [9], 8.37; in the assay filed under Cavia porcellus [10] it was 6.69. This compound came in with a pKB in the assay listed under Cavia porcellus [11] of 7.84. In addition, the Kb in the assay filed under Cavia porcellus [3] is 204 nM; in the assay filed under Cavia porcellus [4] it was 12 nM; in the assay listed under Cavia porcellus [6], 26.9 nM; in the assay filed under Cavia porcellus [7] it was 3.63 nM.

Take `CCc1c(COc2ccc(C(=O)CC(C)(C)CC(=O)[O-])cc2)ccc(C(C)=O)c1O.[Na+]`: the pKB in the assay filed under Cavia porcellus [1] is recorded as below 5; in the assay listed under Cavia porcellus [2], below 5; in the assay listed under Cavia porcellus [13] it was below 5; in the assay filed under Cavia porcellus [5], 7.09; in the assay listed under Cavia porcellus [14] it was below 5; in the assay filed under Cavia porcellus [15], below 5. The pKB in the assay listed under Cavia porcellus [16] is reported as 6.74; in the assay filed under Cavia porcellus [17] it was 7.13; in the assay listed under Cavia porcellus [8], below 5; in the assay listed under Cavia porcellus [9], 7.73; in the assay listed under Cavia porcellus [10] it was 6.52; in the assay filed under Cavia porcellus [11], 7.46. Moreover, the Kb in the assay listed under Cavia porcellus [12] was 138 nM; in the assay listed under Cavia porcellus [6] it was 63.1 nM; in the assay filed under Cavia porcellus [7], 9.77 nM; in the assay listed under Cavia porcellus [18] it was 36.3 nM.

Source of the values: ChEMBL document CHEMBL1125935, “(Phenylmethoxy)phenyl derivatives of omega-oxo- and omega-tetrazolylalkanoic acids and related tetrazoles. Synthesis and evaluation as leukotriene D4 receptor antagonists” (J Med Chem, 1991).
